Measured values reported in paper PMC6476888, “Design and synthesis of anticancer 1-hydroxynaphthalene-2-carboxanilides with a p53 independent mechanism of action” (Scientific Reports, 2019).
Read-outs that look alike come from different tables or passages of the source.

Key:
HCT116^−/− = test: Antiproliferative assay (MTS, 72 h) on HCT116 with p53 deletion; assay type: cell-based, human; conditions: for IC50: MTS, 72 h incubation
Procedure: (§1) All of the synthesized compounds were tested for their antiproliferative activity against human colon cancer (Table 1). We used both the wild-type and p53-negative cell lines (HCT116^+/+ and HCT116^−/−, respectively). Mutations in the TP53 gene are present in more than 50% of all cancers and often specifically correspond to a difficult therapy, resistance or a bad prognosis[60]–[63]. The active compounds were additionally tested for their cytotoxicity against normal human fibroblasts. We used 5-fluorouracil (5-FLU), doxorubicin (DOX) and CP-31398 as the standards. 5-FLU is one of the first antimetabolites that was dedicated for cancer treatment and is still used for a wide range of cancers including colon carcinoma. Doxorubicin is a DNA topoisomerase II poison with a high intercalating potency, which is able to induce apoptosis through the p53 pathway. Although DOX has been described as being ineffective in some p53 mutants, its level of activity against the p53 null lines is similar. CP-31398, on the other hand, is an experimental drug in the clinical phase and its mechanism of action is through the reactivation some of p53 mutants. Its activity against the p53 null cell lines is greatly diminished and is actually lower than its cytotoxicity.
(§2) The human colon cancer cell line HCT116 wild type was obtained from ATCC and the normal human fibroblast cell lines NHDF were obtained from PromoCell. The human colon cancer cell line HCT116 with a p53 deletion (p53^−/−) was kindly provided by Prof. M. Rusin from the Maria Sklodowska-Curie Memorial Cancer Centre and Institute of Oncology in Gliwice, Poland[89]. The cells were grown as monolayer cultures in Dulbecco’s modified Eagle’s medium with the antibiotic gentamicin (200 μL/100 mL medium) in 75 cm^2 flasks (Nunc). The DMEM for the HCT116 were supplemented with 12% heat-inactivated fetal bovine serum (Sigma-Aldrich, St. Louis, MO, USA) and for NHDF with 15% non-inactivated fetal bovine serum (Sigma Aldrich, St. Louis, MO, USA). The cells were cultured under standard conditions at 37 °C in a humidified atmosphere at 5% CO2.
(§3) The cells were seeded in 96-well plates (Nunc) at a density of 5,000 cells/well (HCT116) and 4,000 cells/well (NHDF) and incubated at 37 °C for 24 h. The assay was performed following a 72 h incubation with varying concentrations of the compounds that were being tested. Then, 20 µL of CellTiter 96® AQueous One Solution-MTS (Promega) was added to each well (with 100 µL DMEM without phenol red) and incubated for 1 h at 37 °C. The optical densities of the samples were analyzed at 490 nm using a Synergy 4 multi-plate reader (BioTek, Winooski, VT, USA). The results are expressed as the percentage of the control and were calculated as the inhibitory concentration (IC50) values (using a GraphPad Prism 7). The IC50 parameter was defined as the compound concentration that was necessary to reduce the proliferation of cells to 50% of the untreated control. Each individual compound was tested in triplicate in a single experiment with each experiment being repeated three or four times.

HCT116^+/+ = test: Antiproliferative assay (MTS, 72 h) on HCT116 wild type; assay type: cell-based, human; conditions: MTS, 72 h incubation, read-out: Activity IC50 HCT116^+/+
Procedure: as §1, §2, §3

NHDF = test: Cytotoxicity (MTS, 72 h) against normal human fibroblasts; assay type: cell-based; conditions: MTS, 72 h incubation
Procedure: as §1, §2, §3

SMILES | IC50 (HCT116^−/−) [µM] | IC50 (HCT116^+/+) [µM] | IC50 (NHDF) [µM] | selectivity towards the p53 null cells (HCT116 p53^−/− vs wild type) (HCT116^−/−) | IC50 (NHDF; Homo sapiens, NHDF) [µM] | IC50 (HCT116^−/−; Homo sapiens, HCT-116) [µM] | IC50 (HCT116^+/+; Homo sapiens, HCT-116) [µM]
O=C(Nc1c(Cl)cccc1Cl)c1ccc2ccccc2c1O [5g] | > 25 | > 25 | – | – | – | – | –
O=C(Nc1ccc(C(F)(F)F)cc1C(F)(F)F)c1ccc2ccccc2c1O [7d] | 8.69 ± 1.02 | 11.3 ± 1.31 | > 25 | – | – | – | –
O=C(Nc1ccc(Br)c(Cl)c1)c1ccc2ccccc2c1O [5t] | 12.6 ± 0.69 | 12.3 ± 0.79 | > 25 | not selective | – | – | –
O=C(Nc1ccc(Br)cc1C(F)(F)F)c1ccc2ccccc2c1O [7i] | > 25 | > 25 | – | – | – | – | –
COc1cc(NC(=O)c2ccc3ccccc3c2O)cc(OC)c1OC [2f] | 8.78 ± 2.13 | 6.54 ± 2.42 | > 25 | – | – | – | –
O=C(Nc1c(Br)cc(Br)cc1Br)c1ccc2ccccc2c1O [6g] | > 25 | > 25 | – | – | – | – | –
O=C(Nc1cc(Cl)ccc1Cl)c1ccc2ccccc2c1O [5f] | 7.19 ± 1.15 | 7.45 ± 0.85 | > 25 | – | – | – | –
O=C(Nc1cc(Br)ccc1Cl)c1ccc2ccccc2c1O [5q] | 5.4 ± 2.04 | 4.18 ± 1.49 | > 25 | – | – | – | –
Cc1ccccc1NC(=O)c1ccc2ccccc2c1O [3a] | > 25 | > 25 | – | – | – | – | –
Cc1cccc(NC(=O)c2ccc3ccccc3c2O)c1 [3b] | > 25 | > 25 | – | – | – | – | –
O=C(Nc1ccc(Cl)cc1C(F)(F)F)c1ccc2ccccc2c1O [7h] | > 25 | > 25 | – | – | – | – | –
O=C(Nc1ccc(Br)cc1)c1ccc2ccccc2c1O [6c] | 11 ± 0.97 | 5.25 ± 0.67 | > 25 | – | – | – | –
O=C(Nc1ccc(Br)cc1Cl)c1ccc2ccccc2c1O [5n] | 9.79 ± 1.95 | 2.33 ± 0.95 | 23.4 ± 0.86 | – | – | – | –
COc1ccc(NC(=O)c2ccc3ccccc3c2O)cc1 [2c] | > 25 | > 25 | – | – | – | – | –
O=C(Nc1cc(Cl)cc(Cl)c1)c1ccc2ccccc2c1O [5i] | 2.89 ± 0.38 | 2.32 ± 0.26 | 11.5 ± 0.88 | – | – | – | –
Cc1cc(C)cc(NC(=O)c2ccc3ccccc3c2O)c1 [3f] | – | – | – | – | > 25 | > 25 | 19.3 ± 1.68

SMILES | IC50 (HCT116^−/−) [µM] | IC50 (HCT116^+/+) [µM] | IC50 (NHDF) [µM] | selectivity towards the p53 null cells (HCT116 p53^−/− vs wild type) (HCT116^−/−) | IC50 (NHDF; Homo sapiens, NHDF) [µM] | IC50 (HCT116^−/−; Homo sapiens, HCT-116) [µM] | IC50 (HCT116^+/+; Homo sapiens, HCT-116) [µM]
O=C(Nc1cc(C(F)(F)F)ccc1Cl)c1ccc2ccccc2c1O [5r] | – | – | – | – | 12.4 ± 1.14 | 1.46 ± 0.21 | 2.48 ± 0.31
O=C(Nc1ccccc1F)c1ccc2ccccc2c1O [4a] | > 25 | > 25 | – | – | – | – | –
COc1ccccc1NC(=O)c1ccc2ccccc2c1O [2a] | > 25 | > 25 | – | – | – | – | –
O=C(Nc1cccc(F)c1)c1ccc2ccccc2c1O [4b] | 9.02 ± 1.91 | 1.88 ± 0.33 | > 25 | – | – | – | –
O=C(Nc1ccc(Cl)cc1Br)c1ccc2ccccc2c1O [6h] | 13.2 ± 2.3 | 9.54 ± 2.71 | > 25 | – | – | – | –
O=C(Nc1ccccc1)c1ccc2ccccc2c1O [compound 1] | – | – | – | – | – | > 25 | > 25
O=C(Nc1ccc(C(F)(F)F)cc1)c1ccc2ccccc2c1O [7c] | 1.07 ± 0.26 | 4.31 ± 0.51 | 16.6 ± 2.17 | – | – | – | –
O=C(Nc1cccc(Br)c1)c1ccc2ccccc2c1O [6b] | 8.73 ± 0.89 | 9.19 ± 0.98 | 15.2 ± 2.48 | – | – | – | –
O=C(Nc1ccc(C(F)(F)F)c(F)c1)c1ccc2ccccc2c1O [4w] | – | – | – | – | 22.8 ± 2.69 | 4.82 ± 1.46 | 3.25 ± 0.94
Cc1cccc(C)c1NC(=O)c1ccc2ccccc2c1O [3e] | – | – | – | – | – | > 25 | > 25
O=C(Nc1ccc(C(F)(F)F)cc1[N+](=O)[O-])c1ccc2ccccc2c1O [8d] | > 25 | > 25 | – | – | – | – | –
Cc1ccc(C)c(NC(=O)c2ccc3ccccc3c2O)c1 [3d] | – | – | – | – | – | > 25 | > 25
O=C(Nc1c(Br)cccc1Br)c1ccc2ccccc2c1O [6f] | > 25 | > 25 | – | – | – | – | –
COc1ccc(C(F)(F)F)cc1NC(=O)c1ccc2ccccc2c1O [2i] | – | – | – | – | – | > 25 | > 25
Cc1ccc(NC(=O)c2ccc3ccccc3c2O)cc1 [3c] | > 25 | > 25 | – | – | – | – | –
O=C(Nc1ccccc1C(F)(F)F)c1ccc2ccccc2c1O [7a] | 21.4 ± 1.24 | > 25 | – | – | – | – | –
